Structures are written as SMILES.

Assay [1] addresses T1, Muscarinic acetylcholine receptor M1 (Homo sapiens, UniProt P11229).
T1 sequence (P11229 whole entry): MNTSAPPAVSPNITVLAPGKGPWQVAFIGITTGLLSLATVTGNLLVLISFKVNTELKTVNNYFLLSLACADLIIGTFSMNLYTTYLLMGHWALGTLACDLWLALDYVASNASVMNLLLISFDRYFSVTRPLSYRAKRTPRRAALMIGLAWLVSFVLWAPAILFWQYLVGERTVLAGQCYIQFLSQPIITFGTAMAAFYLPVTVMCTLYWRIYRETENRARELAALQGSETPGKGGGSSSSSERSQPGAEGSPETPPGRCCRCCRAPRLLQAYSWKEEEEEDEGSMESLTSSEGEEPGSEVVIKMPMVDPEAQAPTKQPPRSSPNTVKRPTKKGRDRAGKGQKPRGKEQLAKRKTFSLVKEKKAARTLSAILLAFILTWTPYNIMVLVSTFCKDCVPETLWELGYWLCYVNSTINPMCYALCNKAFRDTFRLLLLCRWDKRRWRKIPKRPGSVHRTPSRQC
The class given is functional.

Assay [2] concerns the target T2, Alpha-2B adrenergic receptor (Homo sapiens, UniProt P18089).
T2 sequence (P18089 whole entry): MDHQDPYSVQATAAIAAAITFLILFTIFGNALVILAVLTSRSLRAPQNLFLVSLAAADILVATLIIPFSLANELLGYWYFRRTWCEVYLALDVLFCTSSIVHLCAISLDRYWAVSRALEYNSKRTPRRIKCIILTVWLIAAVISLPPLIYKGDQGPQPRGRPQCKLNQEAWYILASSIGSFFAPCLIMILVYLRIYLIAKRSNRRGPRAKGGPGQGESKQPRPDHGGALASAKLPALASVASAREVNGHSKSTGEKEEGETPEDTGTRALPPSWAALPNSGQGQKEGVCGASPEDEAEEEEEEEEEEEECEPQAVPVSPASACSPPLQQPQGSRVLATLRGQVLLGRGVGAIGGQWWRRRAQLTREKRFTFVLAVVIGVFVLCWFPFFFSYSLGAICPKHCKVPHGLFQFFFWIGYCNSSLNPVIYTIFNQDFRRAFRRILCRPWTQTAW

For assay [3], the target named is Muscarinic acetylcholine receptor M3 (Homo sapiens, UniProt P20309).
Sequence of Muscarinic acetylcholine receptor M3 (P20309 whole entry): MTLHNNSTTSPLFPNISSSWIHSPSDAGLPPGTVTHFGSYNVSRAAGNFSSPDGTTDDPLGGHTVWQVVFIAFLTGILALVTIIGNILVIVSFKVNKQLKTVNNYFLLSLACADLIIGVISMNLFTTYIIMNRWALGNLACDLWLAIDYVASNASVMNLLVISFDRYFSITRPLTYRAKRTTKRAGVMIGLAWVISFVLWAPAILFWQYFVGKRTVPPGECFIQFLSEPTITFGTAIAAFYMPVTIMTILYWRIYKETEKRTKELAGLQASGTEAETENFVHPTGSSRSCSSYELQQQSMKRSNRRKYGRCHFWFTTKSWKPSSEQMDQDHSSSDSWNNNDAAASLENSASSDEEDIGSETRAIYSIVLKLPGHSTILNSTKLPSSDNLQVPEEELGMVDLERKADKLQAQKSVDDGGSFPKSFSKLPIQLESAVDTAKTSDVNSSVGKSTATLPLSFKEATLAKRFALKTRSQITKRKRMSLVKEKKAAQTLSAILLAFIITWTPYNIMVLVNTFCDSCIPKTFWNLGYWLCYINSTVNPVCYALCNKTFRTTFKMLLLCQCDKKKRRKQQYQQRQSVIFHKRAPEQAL
In assay [4] the target is T3, Cannabinoid receptor 1 (Homo sapiens, UniProt P21554). The class given is functional, cell-based.
T3 sequence (P21554 whole entry): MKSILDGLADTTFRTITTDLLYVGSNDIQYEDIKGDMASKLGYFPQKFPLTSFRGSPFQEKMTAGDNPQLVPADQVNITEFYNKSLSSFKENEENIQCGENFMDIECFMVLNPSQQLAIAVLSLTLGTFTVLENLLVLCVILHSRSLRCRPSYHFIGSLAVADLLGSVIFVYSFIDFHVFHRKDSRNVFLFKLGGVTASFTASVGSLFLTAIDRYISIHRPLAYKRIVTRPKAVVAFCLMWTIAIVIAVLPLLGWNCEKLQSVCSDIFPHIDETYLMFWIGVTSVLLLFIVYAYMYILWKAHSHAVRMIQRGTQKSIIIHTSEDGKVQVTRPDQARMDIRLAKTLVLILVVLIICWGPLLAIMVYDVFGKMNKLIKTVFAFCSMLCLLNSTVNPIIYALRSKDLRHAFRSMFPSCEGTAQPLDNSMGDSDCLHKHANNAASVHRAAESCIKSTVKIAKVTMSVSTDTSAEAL
Assay [5] deals with 5-hydroxytryptamine receptor 2A (Homo sapiens, UniProt P28223). The format is functional, cell-based.
Sequence of 5-hydroxytryptamine receptor 2A (P28223 whole entry): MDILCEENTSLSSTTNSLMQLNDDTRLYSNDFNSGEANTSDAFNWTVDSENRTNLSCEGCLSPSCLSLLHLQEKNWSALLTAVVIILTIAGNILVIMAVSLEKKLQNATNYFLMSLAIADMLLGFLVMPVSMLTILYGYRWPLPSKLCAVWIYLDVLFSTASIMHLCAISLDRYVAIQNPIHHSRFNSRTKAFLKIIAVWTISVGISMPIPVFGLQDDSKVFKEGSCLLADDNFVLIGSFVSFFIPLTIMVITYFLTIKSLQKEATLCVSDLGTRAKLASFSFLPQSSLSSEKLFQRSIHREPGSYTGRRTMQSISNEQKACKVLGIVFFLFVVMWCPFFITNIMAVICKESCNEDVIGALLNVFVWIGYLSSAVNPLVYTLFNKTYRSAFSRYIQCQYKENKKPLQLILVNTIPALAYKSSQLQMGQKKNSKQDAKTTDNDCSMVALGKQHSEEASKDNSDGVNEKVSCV
Assay [6] addresses T3, Cannabinoid receptor 1. The format is functional, cell-based. The source holds these as a separate data set.
Assay [7] deals with Melanocortin receptor 4 (Homo sapiens, UniProt P32245).
Sequence of Melanocortin receptor 4 (P32245 whole entry): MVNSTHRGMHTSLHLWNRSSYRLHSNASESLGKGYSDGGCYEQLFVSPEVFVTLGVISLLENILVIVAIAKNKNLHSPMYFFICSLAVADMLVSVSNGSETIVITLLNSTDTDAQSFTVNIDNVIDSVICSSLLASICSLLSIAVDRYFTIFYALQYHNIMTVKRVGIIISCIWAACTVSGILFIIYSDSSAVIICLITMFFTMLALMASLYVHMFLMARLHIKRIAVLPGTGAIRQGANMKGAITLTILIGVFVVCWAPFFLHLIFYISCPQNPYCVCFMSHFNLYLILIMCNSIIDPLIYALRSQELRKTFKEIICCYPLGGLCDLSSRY
For assay [8], the target named is T4, Estrogen receptor (Homo sapiens, UniProt P03372).
T4 sequence (P03372 whole entry): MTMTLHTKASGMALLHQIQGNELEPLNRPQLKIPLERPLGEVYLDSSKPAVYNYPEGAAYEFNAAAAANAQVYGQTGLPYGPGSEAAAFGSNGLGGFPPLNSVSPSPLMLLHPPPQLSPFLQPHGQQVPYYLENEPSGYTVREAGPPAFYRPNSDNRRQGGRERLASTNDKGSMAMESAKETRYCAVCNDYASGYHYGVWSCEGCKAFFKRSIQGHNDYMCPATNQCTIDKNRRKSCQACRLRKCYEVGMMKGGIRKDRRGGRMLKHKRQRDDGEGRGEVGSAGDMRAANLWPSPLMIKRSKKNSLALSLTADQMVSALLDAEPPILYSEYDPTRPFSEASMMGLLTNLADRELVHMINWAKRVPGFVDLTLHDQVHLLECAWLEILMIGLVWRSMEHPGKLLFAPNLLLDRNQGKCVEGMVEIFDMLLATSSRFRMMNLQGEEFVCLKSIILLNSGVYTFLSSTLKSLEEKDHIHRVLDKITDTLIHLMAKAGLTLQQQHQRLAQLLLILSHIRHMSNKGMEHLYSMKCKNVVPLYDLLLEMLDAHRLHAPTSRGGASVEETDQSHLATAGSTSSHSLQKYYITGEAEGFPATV
Also: assay procedure not described here.

As usually defined, the AC50 is the concentration at which the activity in the assay is half-maximal. Lower therefore signals activity at low concentration. Regarding `Oc1cc(O)c(Cl)cn1`, the half-maximal activity concentration (AC50) in assay [1], in assay [2], in assay [3], in assay [4], in assay [5] and in assay [6] was greater than 30 µM throughout.

Turning to `C[N+]12CCC(CC1)C(OC(=O)C(O)(c1ccccc1)c1ccccc1)C2` (centres undefined), the concentration at half-maximal activity (AC50) in assay [1] is 0.0031 µM; in assay [2], greater than 30 µM; in assay [3], 0.0019 µM; in assay [4], greater than 30 µM; in assay [5], greater than 30 µM; in assay [6] it was greater than 30 µM.

On to `COc1ccc(C2C(=O)c3ccccc3C2=O)cc1` [ANISINDIONE], for which the AC50 is greater than 10 µM in assay [7] and greater than 30 µM in assay [8].

With `O=C(O)CCNC(=O)c1ccc(/N=N/c2ccc(O)c(C(=O)O)c2)cc1` [BALSALAZIDE], the concentration at half-maximal activity (AC50) in assay [7] and in assay [8] was greater than 30 µM each time.

With `O=C(CCCN1CCC(O)(c2ccc(Br)cc2)CC1)c1ccc(F)cc1` [BROMPERIDOL], the AC50 in assay [1] is 20 µM; in assay [3] it was 12 µM; in assay [4], greater than 30 µM; in assay [8], greater than 30 µM; in assay [6], greater than 30 µM.

In the case of `CO/N=C(\C(=O)N[C@@H]1C(=O)N2C(C(=O)O)=CCS[C@H]12)c1csc(N)n1` [CEFTIZOXIME], the AC50 in assay [1], in assay [4], in assay [8], in assay [5] and in assay [6] was greater than 30 µM each time.

Turning to `COc1cc(N)c(Cl)cc1C(=O)NC1CCN(CCCOc2ccc(F)cc2)CC1OC` (centres undefined) [CISAPRIDE], the concentration at half-maximal activity (AC50) in assay [7], in assay [4], in assay [8] and in assay [6] was greater than 30 µM in each case.

Turning to `CCOC(=O)C(C)(C)Oc1ccc(Cl)cc1` [CLOFIBRATE], the AC50 in assay [7], in assay [4], in assay [8] and in assay [6] was greater than 30 µM each time.

`C[C@@H]1C[C@H]2[C@@H]3CCC4=CC(=O)C=C[C@]4(C)[C@@]3(F)[C@@H](O)C[C@]2(C)[C@@]1(O)C(=O)CO` [DEXAMETHASONE] gave a half-maximal activity concentration (AC50) in assay [7] greater than 30 µM.

As for `CCN1CC(CCN2CCOCC2)C(c2ccccc2)(c2ccccc2)C1=O` (centres undefined) [DOXAPRAM], the AC50 in assay [4] and in assay [6] was greater than 30 µM throughout.

Turning to `CCCCOc1ccc(C(=O)CCN2CCCCC2)cc1` [DYCLONINE], the AC50 in assay [1] was greater than 10 µM; in assay [2], greater than 10 µM; in assay [3], greater than 10 µM; in assay [7] it was greater than 30 µM; in assay [4], greater than 30 µM; in assay [8], greater than 30 µM. This compound also came in with an AC50 in assay [6] greater than 30 µM.

On to `CC(C)NC[C@H](O)COc1ccc(CC(N)=O)cc1` [ESATENOLOL], for which the concentration at half-maximal activity (AC50) in assay [7] and in assay [8] was greater than 30 µM each time.

As for `NNC(=O)c1ccncc1` [ISONIAZID], the AC50 in assay [7], in assay [4], in assay [8] and in assay [6] was greater than 30 µM in each case.

Take `COc1ccc(CN2CCN(C(c3ccc(F)cc3)c3ccc(F)cc3)CC2)c(OC)c1OC` [LOMERIZINE]: the half-maximal activity concentration (AC50) in assay [1] is 0.94 µM; in assay [2], 19 µM; in assay [3] it was greater than 30 µM; in assay [4], greater than 30 µM; in assay [5] it was greater than 30 µM; in assay [6], 23 µM.

With `CN1CCN=C(c2ccccc2)c2cc(Cl)ccc21` [MEDAZEPAM], the concentration at half-maximal activity (AC50) in assay [1], in assay [2], in assay [3], in assay [4], in assay [5] and in assay [6] was greater than 30 µM in each case.

In the case of `COc1ccc2cc(CCC(C)=O)ccc2c1` [NABUMETONE], the half-maximal activity concentration (AC50) in assay [7] was greater than 10 µM.

Take `Cc1ccnc2c1NC(=O)c1cccnc1N2C1CC1` [NEVIRAPINE]: the half-maximal activity concentration (AC50) in assay [7], in assay [4] and in assay [6] was greater than 30 µM in each case.

Regarding `O=C(NCCO[N+](=O)[O-])c1cccnc1` [NICORANDIL], the AC50 in assay [1], in assay [2], in assay [3], in assay [4], in assay [5] and in assay [6] was greater than 30 µM in each case.

For the compound `CO[C@H]1C[C@H](O[C@H]2CC[C@@]3(C)[C@H](CC[C@@H]4[C@@H]3CC[C@]3(C)[C@@H](C5=CC(=O)OC5)[C@@H](OC(C)=O)C[C@]43O)C2)O[C@@H](C)[C@@H]1O` [OLEANDRIN], the AC50 in assay [1], in assay [2], in assay [3], in assay [4], in assay [5] and in assay [6] was greater than 30 µM each time.

In the case of `C[C@]12C/C(=C/O)C(=O)C[C@@H]1CC[C@@H]1[C@@H]2CC[C@@]2(C)[C@H]1CC[C@]2(C)O` [OXYMETHOLONE], the AC50 in assay [4], in assay [8] and in assay [6] was greater than 30 µM each time.

As for `NC(=O)NC(=O)Cc1ccccc1` [PHENACEMIDE], the AC50 in assay [7] and in assay [8] was greater than 10 µM throughout.

As to `c1ccc(C2(N3CCCCC3)CCCCC2)cc1` [PHENCYCLIDINE], the concentration at half-maximal activity (AC50) in assay [1], in assay [3], in assay [4], in assay [5] and in assay [6] was greater than 30 µM throughout.

Consider `CCC(=O)O[C@](Cc1ccccc1)(c1ccccc1)[C@H](C)CN(C)C` [PROPOXYPHENE], for which the half-maximal activity concentration (AC50) in assay [1] is greater than 10 µM; in assay [2], greater than 10 µM; in assay [3] it was 16 µM; in assay [7], greater than 30 µM; in assay [4], greater than 30 µM; in assay [6], greater than 30 µM.

For the compound `CCc1nc(N)nc(N)c1-c1ccc(Cl)cc1` [PYRIMETHAMINE], the half-maximal activity concentration (AC50) in assay [1] was greater than 30 µM; in assay [2], greater than 10 µM; in assay [3], greater than 30 µM; in assay [7], greater than 10 µM; in assay [4] it was greater than 30 µM; in assay [8] it was greater than 10 µM. Besides, the half-maximal activity concentration (AC50) in assay [6] was greater than 30 µM.

Regarding `O=c1c(O)c(-c2ccc(O)c(O)c2)oc2cc(O)cc(O)c12` [QUERCETIN], the half-maximal activity concentration (AC50) in assay [1] was greater than 10 µM; in assay [2] it was greater than 10 µM; in assay [3] it was greater than 30 µM; in assay [7] it was greater than 30 µM; in assay [8] it was greater than 30 µM.

In the case of `Cc1cc(C)nc(NS(=O)(=O)c2ccc(N)cc2)n1` [SULFAMETHAZINE], the AC50 in assay [7] is greater than 10 µM.

For the compound `C=CCN1CCc2nc(N)sc2CC1` [TALIPEXOLE], the concentration at half-maximal activity (AC50) in assay [1] was greater than 30 µM; in assay [3] it was greater than 30 µM; in assay [4], greater than 30 µM; in assay [5] it was 11 µM; in assay [6], greater than 30 µM.

Turning to `CCOC(=O)c1ccc(C#Cc2ccc3c(c2)C(C)(C)CCS3)nc1` [TAZAROTENE], the AC50 is greater than 10 µM in assay [1], greater than 10 µM in assay [2], greater than 30 µM in assay [3] and greater than 30 µM in assay [7].

As to `CCOC(=O)[C@@H](N)Cc1ccc(-c2cc(O[C@H](c3ccc(Cl)cc3-n3ccc(C)n3)C(F)(F)F)nc(N)n2)cc1` [TELOTRISTAT ETHYL], the concentration at half-maximal activity (AC50) was greater than 30 µM in assay [1]; 29 µM in assay [2]; greater than 30 µM in assay [3]; greater than 30 µM in assay [4]; greater than 30 µM in assay [5].

`COc1cc(C(=O)NC2CCCNC2)cc(OC)c1OC` (centres undefined) [TROXIPIDE]: the half-maximal activity concentration (AC50) in assay [4] and in assay [6] was greater than 30 µM throughout.

Compound `CCCCCCCC(=O)CC[C@@H]1[C@@H](C/C=C\CCCC(=O)OC(C)C)[C@@H](O)C[C@H]1O` [UNOPROSTONE ISOPROPYL] came in with an AC50 in assay [1] greater than 30 µM.

For the origin of these results see ChEMBL document CHEMBL5291721, “A preclinical secondary pharmacology resource illuminates target-adverse drug reaction associations of marketed drugs” (Nat Commun, 2023).
